The values below are quoted from earlier work in patent EP0604852A1, “2,4-Substituted 5-(N-substituted-sulfamoyl) benzoylguanidines, as antiarrhythmic agents, inhibitors of the proliferation of cells and inhibitors of sodium-hydrogen exchange” (HOECHST AKTIENGESELLSCHAFT, priority 1992, dated 1994).

Molecules are shown by their SMILES.

The subject of this data set is Rattenherzen. The settings on record: isolated rat hearts; Eur. Heart J. 9 (Suppl.): 167 (1988).

Turning to `N=C(N)NC(=O)c1nc(Cl)c(N)nc1N` [Amilorid], the “künstlich ausgelöstes Kammerflimmern” value is given as “völlig unterdrückt”.

On to `CCN(c1nc(N)c(C(=O)NC(=N)N)nc1Cl)C(C)C` [Ethylisopropylamilorid], for which the “künstlich ausgelöstes Kammerflimmern” value is reported as “Noch potenter als Amilorid”.
